Results reported in patent US7589077B2, “Antiviral nucleosides” (priority 2001, dated 2009).
Converted amounts (≈) assume the structure as drawn. Like-named read-outs stand apart in the source and are kept apart here.

Experiments:
[1] = Cell cytotoxicity in Vero cells; type: cell-based; details: African green monkey, Vero cells
Method: (§1) The compounds were assayed for a) their ability to inhibit DHBV DNA replication in duck hepatocytes, b) their ability to inhibit HBV DNA replication in HepG2 2.2.15 cells, c) the cell cytotoxicity in Vero cells, the cell viability in HFF cells, d) the cell proliferation in HFF cells, and e) the T cell proliferation (purified T cells, PHA stimulated). 3-TC was used as a control.

[2] = tested on: duck hepatitis B virus (DHBV); test: DHBV DNA replication in primary duck hepatocytes (dot blot hybridization); type: cell-based
Method: A series of compounds were synthesized and assayed for activity against duck hepatitis B virus (DHBV). […] Test compounds were added to the hepatocyte cultures on day 2 and maintained in culture with media changed every second day until day 12. Cell were harvested at day 14 and lysed with buffer containing 1% SDS. DNA was isolated from the lysate and dot blot hybridization was performed using a DHBV (32P) DNA probe. […]
as §1

[3] = Cell viability in HFF cells (neutral red); type: cell-based, human; details: human, HFF cells
Method: (§2) Twenty-four hours prior to assay HFF cells were plated into 96 well plates at a concentration of 2.5×10^4 cells per well. […] The plates were incubated for 7 days in a CO2 incubator at 37° C. At this time the media/drug was aspirated and 200 μL/well of 0.01% neutral red in Dulbecco's Phosphate Buffered Saline (DPBS) was added. This was incubated in the CO2 incubator for 2 h, the dye was aspirated and the cells were washed using a Nunc Plate Washer. After removing the DPBS wash, […] of 50% EtOH: 1% glacial acetic acid in water was added. The plates were rotated for 15 min. and the optical densities were read at 550 nm on a plate reader.

human HBV = test: HBV DNA replication in HepG2 2.2.15 cells; type: cell-based, hepatitis B virus
Method: The compounds were assayed for a) their ability to inhibit DHBV DNA replication in duck hepatocytes, b) their ability to inhibit HBV DNA replication in HepG2 2.2.15 cells, c) the cell cytotoxicity in Vero cells, the cell viability in HFF cells, d) the cell proliferation in HFF cells, and e) the T cell proliferation (purified T cells, PHA stimulated). 3-TC was used as a control. Additional compounds described below in the Preparative Examples section were also tested, and the results are shown in Tables 2-4 below. The reference numbers for the compounds are found in the Preparative Examples.

HFF cells [4] = test: Cell proliferation assay in HFF cells; type: cell-based, human; details: Table 2; for IC50: Homo sapiens, HFF
Method: The media from the wells was then aspirated and 2 mL of each drug concentration was then added to each well. The cells were incubated in a CO2 incubator at 37° C. for 72 h. At the end of this time, the media-drug solution was removed and the cells were washed. […] The cell-media mixture was then pipetted up and down vigorously to break up the cell suspension and 0.2 mL of the mixture was added to 9.8 mL of isoton III and counted using a Coulter Counter. Each sample was counted three times with three replicate wells per sample.

VZV (Ellen) = test: CPE inhibition assay VZV (Ellen) in HFF cells; type: cell-based, varicella zoster virus; details: Human alphaherpesvirus 3, HFF, Table 2
Method: (§3) Cytopathic effect (CPE) inhibition assays for HSV-1, HSV-2, HCMV and VZV were performed as follows: Low passage human foreskin fibroblasts (HFF) cells were seeded into 96 well tissue culture plates 24 h prior to use at a cell concentration of 2.5×10^4 cells per mL in 0.1 mL of minimal essential medium (MEM) supplemented with 10% fetal bovine serum (FBS). The cells were then incubated for 24 h at 37° C. in a CO2 incubator. After incubation, the medium was removed and 100 μL of MEM containing 2% FBS was added to all but the first row. In the first row, 125 μL of experimental drug was added in triplicate wells. Medium alone was added to both cell and virus control […]. After incubation, the medium was removed and 100 μl of MEM containing 2% FBS was added to all but the first row. Medium alone was added to both cell and virus control wells. 125 μl of Experimental drug was added in triplicate wells. The drug in the first row of wells was then diluted serially 1:5 throughout the remaining wells by transferring 25 μL using the Cetus Liquid Handling Machine. After dilution of drugs, 100 μL of the appropriate virus concentration was added to each well, excluding the cell control wells which received 100 μL of MEM. For HSY-1 and HSV-2 assays, the virus concentration utilized was 1000 PFU's per well. For CMV and VZV assays, the virus concentration added was 2500 PFU's per well. The plates were then incubated at 37° C. in a CO2 incubator for 3 days for HSV-1 and HSV-2, 10 days for VZV, or 14 days for CMV. After the incubation period, media was aspirated and the cells stained with a 0.1% crystal violet solution for 30 min. The stain was then removed and the plates were allowed to dry 24 h and then read on a Skatron Plate Reader at 620 nm.

HCMV (AD169) = test: CPE inhibition assay HCMV (AD169) in HFF cells; type: cell-based, human cytomegalovirus; details: Human betaherpesvirus 5, AD169, HFF; Table 2
Method: as §3

Vero cells = test: Cell cytotoxicity in Vero cells; type: cell-based
Method: as §1

HFF cells [5] = test: Cell viability in HFF cells (neutral red); type: cell-based, human
Method: as §2

HSV-1 (KOSSB) HSV-TK− = test: microbe, parasite or virus in culture; type: cell-based, Herpes simplex virus type-1; details: Table 4
Method: as §3, with “The” for “Cytopathic effect (CPE) inhibition assays for HSV-1, HSV-2, HCMV and VZV were performed as follows: Low passage human foreskin fibroblasts (HFF) cells were seeded into 96 well tissue culture plates 24 h prior to use at a cell concentration of 2.5×10^4 cells per mL in 0.1 mL of minimal essential medium (MEM) supplemented with 10% fetal bovine serum (FBS). The”

HSV-1 (KOS) HSV-TK+ = HSV-1 (KOS) HSV-TK+ antiviral assay; type: cell-based, Herpes simplex virus type-1; details: Table 4
Method: as §3

Epstein-Barr Virus (EBV) = test: EBV immunofluorescence assay in DAUDI cells (P3HR-1 strain); type: cell-based
Method: The immunofluorescence assay, using monoclonal antibodies, for Epstein-Barr Virus (EBV) was performed as follows: DAUDI cells were infected with the P3HR-1 strain of EBV and the test drug was added after adsorption (45 min. at 37° C.) and washing of the cell cultures. These cultures were then incubated for 2 days in complete medium to allow viral gene expression. Following the 48 h incubation period, the number of cells in each sample were counted and smears were made. Monoclonal antibodies to the different early antigen (EA) components and VCA were than added to the cells, incubated and washed. This was followed by the addition of a fluorescein conjugated rabbit anti mouse Ig antibodies. The number of fluorescence positive cells in the smears were counted and the total number of cells in the cultures positive for EA or VCA were then calculated and compared.

[6] = Duck hepatitis B virus, Hepatocyte, read-out: % Inh. of DHBV DNA in duck hepatocytes @ 10 μg/ml
[7] = Duck hepatitis B virus, Hepatocyte, Table 2, value in brackets, read-out: DHBV DNA in duck hepatocytes [EC50, μg/ml]

Row | Structure (SMILES) | inhibition at 10 µg/mL [2, 6] [%] | EC50 [2, 7] [µg/mL] | IC50 (HFF cells [4]) [µg/mL] | CC50 ([1]; Table 2) [µg/mL] | CC50 at 7 days ([3]; Table 2) [µg/mL] | EC50 (VZV (Ellen)) [µg/mL] | EC50 (HCMV (AD169)) [µg/mL] | also measured
1 | Nc1ccn([C@@H]2CS[C@H](CO)O2)c(=O)n1 [Compound 3-TC, lamivudine, reference compound] | 96 | 0.01 to 0.05 | – | – | – | – | – | CC50 ([1]; Table 5): > 100 µg/mL; inhibition at 1 µg/mL ([2]; Duck hepatitis B virus, Hepatocyte, read-out: % Inhibition of DHBV DNA in duck hepatocytes @1.0 μg/ml): 95%; inhibition at 10 µg/mL ([2]; Duck hepatitis B virus, Hepatocyte, read-out: % Inhibition of DHBV DNA in duck hepatocytes @10.0 μg/ml): 100%; EC50 ([2]; Duck hepatitis B virus, Hepatocyte, Table 3a, read-out: % Inhibition of DHBV DNA in duck hepatocytes EC50): 70 nM; CC50 at 7 days ([3]; Table 5): > 100 µg/mL; inhibition at 0.1 µg/mL (human HBV; Hepatitis B virus, HepG2 2.2.15, read-out: % Inh. of human HBV DNA replication in HepG2 2.2.15 cells @ 0.1 μg/ml (left)): 90%
2 | C=C(N=[N+]=[N-])c1cn(COCCO)c(=O)[nH]c1=O [Compound 7, 1-[(2-hydroxyethoxy)methyl]-5-(1-azidovinyl)-uracil] | 84 | 0.01 to 0.1 | > 100 | > 100 | > 100 | – | – | –
3 | [N-]=[N+]=NC(CCl)c1cn(COC(CO)CO)c(=O)[nH]c1=O (stereo not drawn) [Compound 10b, 1-[(2-Hydroxy-1-(hydroxymethyl)ethoxy)methyl]-5-(1-azido-2-chloroethyl)uracil] | 75 | 1 to 5 | > 100 | > 200 | > 100 | 5 (≈ 15.6 µM) | 10 (≈ 31.3 µM) | –
4 | [N-]=[N+]=NC(CI)c1cn(COC(CO)CO)c(=O)[nH]c1=O (stereo not drawn) [Compound 10c, 1-[(2-Hydroxy-1-(hydroxymethyl)ethoxy)methyl]-5-(1-azido-2-iodoethyl)uracil] | 75 | 1 to 5 | > 100 | > 200 | > 100 | 1 (≈ 2.43 µM) | 10 (≈ 24.3 µM) | –
5 | C=C(N=[N+]=[N-])c1cn(COC(CO)CO)c(=O)[nH]c1=O [Compound 13] | – | – | – | – | – | – | – | Cell proliferation, HFF cells IC50 (HFF cells [4]): >100 µg/mL; Cell Cytotoxicity, Vero cells CC50 (Vero cells; Table 2): >200 µg/mL; DHBV DNA in duck hepatocytes [EC50, μg/ml] ([2]; Table 2, value in brackets): 0.01 to 0.1 µg/mL; % Inh. of DHBV DNA in duck hepatocytes @ 10 μg/ml ([2]; Table 2, 10 μg/ml): 85.6%; Cell viability HFF cells CC50 (HFF cells [5]; Table 2): >100 µg/mL; % Inh. of human HBV DNA replication in HepG2 2.2.15 cells @ 0.01 μg/ml (right) (human HBV; Table 2, 0.01 μg/ml): 17.0%; % Inh. of human HBV DNA replication in HepG2 2.2.15 cells @ 0.1 μg/ml (left) (human HBV; Table 2, 0.1 μg/ml): 75.4%
6 | [N-]=[N+]=NC(CCl)c1cn(CCC(CO)CO)c(=O)[nH]c1=O (stereo not drawn) [Compound 21b, 1-[4-Hydroxy-3-(hydroxymethyl)-1-butyl]-5-(1-azido-2chloroethyl)uracil] | 84 | 0.1 to 0.5 | > 100 | > 200 | > 100 | 6 (≈ 18.9 µM) | 1 (≈ 3.15 µM) | –
7 | C=C(N=[N+]=[N-])c1cn(CCC(CO)CO)c(=O)[nH]c1=O [Compound 26, 1-[4-Hydroxy-3-(hydroxymethyl),1-butyl]-5-(1-azidovinyl)uracil] | 93 | 0.01 to 0.05 | > 100 | > 200 | > 100 | – | – | –
8 | CC1(F)C(=O)NC(=O)N2C3CC(N=[N+]=[N-])C(COC21)O3 [Compound R-13, (5R,6S)5-fluoro-O^6-5′-cyclo-5,6-dihydro-3′-azido-3′-deoxythymidine] | – | – | – | – | – | – | – | CC50 (Vero cells; Table 1): > 700 µM; % Inhibition of DHBV DNA replication in duck hepatocytes @10 μg/ml [2]: 36.0%; HSV-1 (KOSSB) HSV-TK− EC50 (HSV-1 (KOSSB) HSV-TK−): >50 µg/mL; HSV-1 (KOS) HSV-TK+ EC50 (HSV-1 (KOS) HSV-TK+): >25 µg/mL
9 | CCC1(F)C(=O)NC(=O)N([C@@H]2O[C@H](CO)[C@@H](O)[C@@H]2F)C1OC (stereo partly drawn) [RC-1, 5-Ethyl-5-fluoro-6-methoxy-5,6-dihydro-2′-arabinofluoro-2′-deoxyuridine] | – | – | – | – | – | – | – | EBV EC50 (Epstein-Barr Virus (EBV); Table 5): <0.08 µg/mL; EBV EC90 (Epstein-Barr Virus (EBV); Table 5, in parentheses): (EC90 = <0.08) μg/ml; Cell Cytotoxicity, Vero cells CC50 (Vero cells; Table 5): >100 µg/mL; Cell viability HFF cells CC50 (HFF cells [5]; Table 5): >100 µg/mL
